Laboratory results taken from patent US11298422B2, “Treating tumors with TTFields and an aurora kinase inhibitor” (Novocure Limited, priority 2018, dated 2022).

Assays:
U87-MG = assay: Flow cytometry analysis of DNA contents (ploidy), U87-MG; type: cell-based, human; conditions: 72 h
Experimental: (§1) For cell cycle analysis, cells were removed with Trypsin immediately after 72 h treatment, washed twice with ice-cold PBS with 1% FBS and fixed with 70% ice-cold ethanol for 30 min. After fixation, cells were washed twice with ice-cold PBS with 1% FBS, pelleted and incubated in PBS containing 10 μg/ml RNase and 7.5 μg/ml7-AAD (Sigma-Aldrich) at 37° C. for 30 min. Cell cycle distribution was then quantified using the EC800 flow cytometer (Sony Biotechnology, Japan).
(§2) FIGS. 3A-D and 4A-E show U87-MG and U87-MG^shp53 FACS analysis of DNA contents following treatment with TTFields and AZD1152. More specifically, FIGS. 3A-D depict increased polyploidy in U87-MG cells following the combined treatment of TTFields (200 kHz, 1.6 V/cm RMS) at various AZD1152 concentrations; and FIGS. 4A-E depict increased polyploidy in U87-MG^shp53 cells following the combined treatment of TTFields (200 kHz, 1.6 V/cm RMS) at various AZD1152 concentrations.
(§3) Tables 1 and 2 depict, for U87-MG and U87-MG^shp53 respectively, numeric data corresponding to FIGS. 3 and 4. The columns in tables 1 and 2 represent the DNA copy number (e.g., 2n is the normal number of chromosomes (23 pairs=46), 4n is twice the number of chromosomes, etc.).

U87-MG^shp53 = assay: Flow cytometry analysis of DNA contents (ploidy), U87-MG^shp53; type: cell-based, human; conditions: 72 h
Experimental: as §1, §2, §3

[1] = AZD1152 25 nM + TTFIELDS 200 kHz 1.6 V/cm RMS
[2] = AZD1152 25 nM, CONTROL (no TTFields)
[3] = AZD1152 50 nM + TTFIELDS 200 kHz 1.6 V/cm RMS
[4] = AZD1152 50 nM, CONTROL (no TTFields)
[5] = AZD1152 100 nM + TTFIELDS 200 kHz 1.6 V/cm RMS
[6] = AZD1152 100 nM, CONTROL (no TTFields)
[7] = U87-MGShp53, AZD1152 12.5 nM + TTFIELDS 200 kHz 1.6 V/cm RMS
[8] = U87-MGShp53, AZD1152 12.5 nM, CONTROL (no TTFields)
[9] = U87-MGShp53, AZD1152 25 nM + TTFIELDS 200 kHz 1.6 V/cm RMS
[10] = U87-MGShp53, AZD1152 25 nM, CONTROL (no TTFields)
[11] = U87-MGShp53, AZD1152 50 nM + TTFIELDS 200 kHz 1.6 V/cm RMS
[12] = U87-MGShp53, AZD1152 50 nM, CONTROL (no TTFields)

CCN(CCCOc1ccc2c(Nc3cc(CC(=O)Nc4cccc(F)c4)n[nH]3)ncnc2c1)CCOP(=O)(O)O [AZD1152, Barasertib]
DNA copy number 2n (U87-MG; [1]): 39% | DNA copy number 4n (U87-MG; [1]): 31% | DNA copy number 8n (U87-MG; [1]): 9% | DNA copy number 16n (U87-MG; [1]): 2% | DNA copy number 2n (U87-MG; [2]): 55% | DNA copy number 4n (U87-MG; [2]): 25% | DNA copy number 8n (U87-MG; [2]): 4% | DNA copy number 16n (U87-MG; [2]): 1% | DNA copy number 2n (U87-MG; [3]): 28% | DNA copy number 4n (U87-MG; [3]): 36% | DNA copy number 8n (U87-MG; [3]): 16% | DNA copy number 16n (U87-MG; [3]): 2% | DNA copy number 2n (U87-MG; [4]): 45% | DNA copy number 4n (U87-MG; [4]): 26% | DNA copy number 8n (U87-MG; [4]): 8% | DNA copy number 16n (U87-MG; [4]): 2% | DNA copy number 2n (U87-MG; [5]): 11% | DNA copy number 4n (U87-MG; [5]): 40% | DNA copy number 8n (U87-MG; [5]): 25% | DNA copy number 16n (U87-MG; [5]): 4% | DNA copy number 2n (U87-MG; [6]): 27% | DNA copy number 4n (U87-MG; [6]): 33% | DNA copy number 8n (U87-MG; [6]): 22% | DNA copy number 16n (U87-MG; [6]): 3% | DNA copy number 2n (U87-MG^shp53; [7]): 44% | DNA copy number 4n (U87-MG^shp53; [7]): 34% | DNA copy number 8n (U87-MG^shp53; [7]): 19% | DNA copy number 2n (U87-MG^shp53; [8]): 46% | DNA copy number 4n (U87-MG^shp53; [8]): 29% | DNA copy number 8n (U87-MG^shp53; [8]): 6% | DNA copy number 16n (U87-MG^shp53; [8]): 1% | DNA copy number 32n (U87-MG^shp53; [8]): 0% | DNA copy number 2n (U87-MG^shp53; [9]): 10% | DNA copy number 4n (U87-MG^shp53; [9]): 36% | DNA copy number 8n (U87-MG^shp53; [9]): 29% | DNA copy number 2n (U87-MG^shp53; [10]): 48% | DNA copy number 4n (U87-MG^shp53; [10]): 25% | DNA copy number 8n (U87-MG^shp53; [10]): 6% | DNA copy number 16n (U87-MG^shp53; [10]): 1% | DNA copy number 32n (U87-MG^shp53; [10]): 0% | DNA copy number 2n (U87-MG^shp53; [11]): 2% | DNA copy number 4n (U87-MG^shp53; [11]): 21% | DNA copy number 8n (U87-MG^shp53; [11]): 38% | DNA copy number 2n (U87-MG^shp53; [12]): 40% | DNA copy number 4n (U87-MG^shp53; [12]): 33% | DNA copy number 8n (U87-MG^shp53; [12]): 11% | DNA copy number 16n (U87-MG^shp53; [12]): 3% | DNA copy number 32n (U87-MG^shp53; [12]): 0%
